Laboratory results from patent US8299091B2, “Aminoisoquinoline thrombin inhibitor with improved bioavailability” (MSD Oss B.V., priority 2006, dated 2012).
Where a name gives a salt, the structure may show the parent alone. Read-outs that look alike come from different tables or passages of the source.

Columns and labels:
human α-thrombin = molecular target: T1, human α-thrombin (Homo sapiens, UniProt P00734); experiment: Assay of thrombin activity (chromogenic substrate S-2238); assay type: biochemical; details: for IC50: 10 min pre-incubation at 37° C, substrate S-2238; for Ki: Hanes-Woolf analysis, S-2238 concentration varied
T1 construct: human α-thrombin
Procedure: Thrombin inhibitory activity was assessed by pre-incubating the test compound at a variety of concentrations with human α-thrombin at 37° C. After 10 min, the chromogenic substrate H-D-Phe-Pipecolinyl-Arg-ρ-nitroanilide (S-2238) was added to the mixture and the change in absorbance measured over the following 8 min.

[1] = Determination of bioavailability / pharmacokinetics in rats; assay type: in vivo; details: male, Wistar Ola, plasma, rat, saline; for half-life: read-out: T½ (converted); for Vd: read-out: Vss
Description: Determination of Bioavailability of Compounds 1A, 2A and 3A in Rats
Male Wistar Ola rats (˜250 g). Food and water were available ad libitum throughout the studies.
For intravenous pharmacokinetic studies, catheters (Portex polythene—ID 0.58 mm, OD 0.96 mm with a tip made from SF Medical silicone tubing, SFM1-1350) were inserted into the right jugular vein under isoflurane anaesthesia. The tubing was exteriorised at the back of the neck, filled with heparinised saline (100 Um/ml) and stoppered. Animals were allowed a minimum of 48 h recovery before dosing.
Compounds 1A, 2A and 3A were administered orally (PO). Compounds 1B, 2B and 3B were administered intravenously (IV). Serial blood samples (for plasma) were taken from a lateral vein at points from 3 min to 24 hrs (terminal sample by cardiac puncture) according to a matrix design protocol (3 samples per time point). Plasma samples were stored at −20° C. until analysis.
Plasma samples were analyzed for the pertinent free acid thrombin derivatives 1B, 2B and 3B using an LC-MS method. Cmax (maximum plasma concentrations) and AUC values were determined from the mean plasma concentration—time profiles.
Noncompartmental pharmacokinetic analysis was performed using WinNonlin Professional 3.1 and 4.1.

[2] = as above; assay type: in vivo; details: male, Wistar Ola, plasma, rat
[3] = IV 5 mg/kg, mean of two studies
[4] = PO 10 mg/kg of the free acid itself, saline

Compound | IC50 (human α-thrombin) | Ki (human α-thrombin) | AUC ([1]; IV 2 mg/kg) | clearance ([1]; IV 2 mg/kg) | half-life ([1]; IV 2 mg/kg) | Vd ([1]; IV 2 mg/kg) | other results
Cl.Nc1nccc2cc(CNC(=O)[C@@H]3CCCN3C(=O)[C@H](NCC(=O)O)C(c3ccccc3)c3ccccc3)ccc12 [Compound 1B, N-(carboxymethyl)-β-phenyl-D-phenylalanyl-N-[(1-amino-6-isoquinolyl)methyl]-L-prolinamide hydrochloride] | 12.6 nM | 0.9 nM |  |  |  |  | AUC [1, 3]: 4860 ng·h/mL; clearance [1, 3]: 17 mL/min/kg; half-life [1, 3]: 19.2 min; Vd [1, 3]: 0.48 L/kg; bioavailability ([2]; PO 10 mg/kg of the free acid itself vs IV): 1.3%; AUC [2, 4]: 119 ng·h/mL; Cmax [2, 4]: 35 ng/mL; Tmax [2, 4]: 72 min
CCCOC(=O)CN[C@@H](C(=O)N1CCC[C@H]1C(=O)NCc1ccc2c(N)nccc2c1)C(c1ccccc1)c1ccccc1 [Compound 1A, N-(2-oxo-2-propoxyethyl)-β-phenyl-D-phenylalanyl-N-[(1-amino-6-isoquinolinyl)methyl]-L-prolinamide] | 13 nM | 1 nM |  |  |  |  | 

The next lines start with results.

IC50 (human α-thrombin) | Ki (human α-thrombin) | AUC ([1]; IV 2 mg/kg) | clearance ([1]; IV 2 mg/kg) | half-life ([1]; IV 2 mg/kg) | Vd ([1]; IV 2 mg/kg) | Compound | other results
358 nM | 5.4 nM | 1010 ng·h/mL | 34 mL/min/kg | 9.6 min | 0.46 L/kg | COc1ccc(C[C@@H](NCC(=O)O)C(=O)N2CCC[C@H]2C(=O)NCc2ccc3c(N)nccc3c2)cc1 [Compound 3B, N-(carboxymethyl)-O-methyl-D-tyrosinyl-N-[(1-amino-6-isoquinolyl)methyl]-L-prolinamide trifluoroacetate] | 
197 nM | 1.8 nM |  |  |  |  | CCCOC(=O)CN[C@H](Cc1ccc(OC)cc1)C(=O)N1CCC[C@H]1C(=O)NCc1ccc2c(N)nccc2c1 [Compound 3A, N-(2-propoxy-2-oxoethyl)-O-methyl-D-tyrosinyl-N-[(1-amino-6-isoquinolyl)methyl]-L-prolinamide hydrochloride] | 
 |  | 659 ng·h/mL | 54 mL/min/kg | 36.6 min | 2.4 L/kg | Nc1nccc2cc(CNC(=O)[C@@H]3CCCN3C(=O)[C@@H](Cc3ccccc3)NCC(=O)O)ccc12 [Compound 2B, N-(carboxymethyl)-D-phenylalanyl-N-[(1-amino-6-isoquinolyl)methyl]-L-prolinamide trifluoroacetate] | 
573 nM | 34.5 nM |  |  |  |  | CCCOC(=O)CN[C@H](Cc1ccccc1)C(=O)N1CCC[C@H]1C(=O)NCc1ccc2c(N)nccc2c1 [Compound 2A, N-(2-propoxy-2-oxoethyl)-D-phenylalanyl-N-[(1-amino-6-isoquinolyl)methyl]-L-prolinamide hydrochloride] | 
